Test results as given in the supplement of paper PMC10307832.

Tests used:
Test in all cases: relative viability (nuclei count vs DMSO), 5 days (fraction); higher = more cells survive
DM3189 + Linsitinib = compound: C1CN(CCN1)C2=CC=C(C=C2)C3=CN4C(=C(C=N4)C5=CC=NC6=CC=CC=C56)N=C3 [DM3189] + C[C@]1(O)C[C@@H](c2nc(-c3ccc4ccc(-c5ccccc5)nc4c3)c3c(N)nccn32)C1 [Linsitinib] (partner 1 µM)
Method in brief: (§1)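 Lung cancer cell lines in 1536-well plates got either a single drug or a fixed anchor-drug dose together with five library-drug doses (not always all listed) in √10 steps, by pin tool, on the day after seeding. Nuclei were counted after 5 days, and relative viability is the treated-to-vehicle ratio of nuclei counts. Values are medians of duplicate plates.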

DM3189 + Tozasertib = compound: C1CN(CCN1)C2=CC=C(C=C2)C3=CN4C(=C(C=N4)C5=CC=NC6=CC=CC=C56)N=C3 [DM3189] + Cc1cc(Nc2cc(N3CCN(C)CC3)nc(Sc3ccc(NC(=O)C4CC4)cc3)n2)n[nH]1 [Tozasertib] (partner 0.1 µM)
Method in brief: as §1

DM3189 + Dasatinib = compound: C1CN(CCN1)C2=CC=C(C=C2)C3=CN4C(=C(C=N4)C5=CC=NC6=CC=CC=C56)N=C3 [DM3189] + Cc1nc(Nc2ncc(C(=O)Nc3c(C)cccc3Cl)s2)cc(N2CCN(CCO)CC2)n1 [Dasatinib] (partner 0.075 µM)
Method in brief: as §1

DM3189 + Vorinostat = compound: C1CN(CCN1)C2=CC=C(C=C2)C3=CN4C(=C(C=N4)C5=CC=NC6=CC=CC=C56)N=C3 [DM3189] + O=C(CCCCCCC(=O)Nc1ccccc1)NO [Vorinostat] (partner 1 µM)
Method in brief: as §1

DM3189 + Olaparib = compound: C1CN(CCN1)C2=CC=C(C=C2)C3=CN4C(=C(C=N4)C5=CC=NC6=CC=CC=C56)N=C3 [DM3189] + O=C(c1cc(Cc2n[nH]c(=O)c3ccccc23)ccc1F)N1CCN(C(=O)C2CC2)CC1 [Olaparib] (partner 8 µM)
Method in brief: as §1

| Cell Line | relative viability (DM3189 + Linsitinib; first compound 0.08 µM) | relative viability (DM3189 + Linsitinib; first compound 0.253 µM) | relative viability (DM3189 + Linsitinib; first compound 0.8 µM) | relative viability (DM3189 + Linsitinib; first compound 2.53 µM) | relative viability (DM3189 + Tozasertib; first compound 0.08 µM) | relative viability (DM3189 + Tozasertib; first compound 0.253 µM) | relative viability (DM3189 + Tozasertib; first compound 0.8 µM) | relative viability (DM3189 + Tozasertib; first compound 2.53 µM) | relative viability (DM3189 + Dasatinib; first compound 0.08 µM) | relative viability (DM3189 + Dasatinib; first compound 0.253 µM) | relative viability (DM3189 + Dasatinib; first compound 0.8 µM) | relative viability (DM3189 + Dasatinib; first compound 2.53 µM) | relative viability (DM3189 + Vorinostat; first compound 0.08 µM) | relative viability (DM3189 + Vorinostat; first compound 0.253 µM) | relative viability (DM3189 + Vorinostat; first compound 0.8 µM) | relative viability (DM3189 + Vorinostat; first compound 2.53 µM) | relative viability (DM3189 + Olaparib; first compound 0.08 µM) | relative viability (DM3189 + Olaparib; first compound 0.253 µM) | relative viability (DM3189 + Olaparib; first compound 0.8 µM) | relative viability (DM3189 + Olaparib; first compound 2.53 µM) |
| --- | --- | --- | --- | --- | --- | --- | --- | --- | --- | --- | --- | --- | --- | --- | --- | --- | --- | --- | --- | --- |
| 201T | 1.07 | 1.03 | 1.01 | 1.08 | 0.998 | 0.913 | 1.02 | 0.781 | 0.589 | 0.543 | 0.385 | 0.557 | 1.03 | 0.899 | 0.943 | 1.12 | 0.822 | 0.882 | 0.859 | 0.765 |
| A549 | 0.654 | 0.593 | 0.549 | 0.545 |  |  |  |  |  |  |  |  |  |  |  |  | 0.286 | 0.332 | 0.236 | 0.29 |
| A-427 | 1.1 | 1.03 | 1.11 | 1.33 | 0.191 | 0.212 | 0.204 | 0.216 | 0.765 | 0.78 | 0.684 | 0.732 | 0.941 | 0.791 | 0.801 | 0.816 | 0.832 | 0.753 | 0.512 | 0.807 |
| ABC-1 | 0.806 | 0.894 | 0.752 | 0.783 | 0.192 | 0.134 | 0.165 | 0.175 | 0.607 | 0.559 | 0.448 | 0.423 | 1.53 | 0.9 | 1.04 | 0.907 | 1.04 | 0.594 | 0.676 | 0.718 |
| BEN | 0.935 | 0.828 | 0.957 | 0.778 | 0.416 | 0.465 | 0.483 | 0.444 | 0.314 | 0.295 | 0.319 | 0.33 | 0.609 | 0.547 | 0.541 | 0.636 | 1.13 | 1.12 | 0.852 | 1.08 |
| CAL-12T | 0.714 | 0.823 | 0.925 | 0.884 | 0.318 | 0.234 | 0.327 | 0.403 | 0.546 | 0.469 | 0.487 | 0.571 | 0.683 | 0.785 | 0.878 | 0.743 | 0.713 | 0.618 | 0.681 | 0.803 |
| COR-L23 | 0.94 | 1.01 | 0.559 | 0.742 | 0.19 | 0.196 | 0.147 | 0.187 | 0.543 | 0.525 | 0.458 | 0.525 | 0.454 | 0.537 | 0.387 | 0.37 | 0.439 | 0.264 | 0.245 | 0.303 |
| COR-L 105 | 0.905 | 1.08 | 0.804 | 1.25 | 0.434 | 0.371 | 0.32 | 0.358 | 0.427 | 0.449 | 0.348 | 0.327 | 0.867 | 0.73 | 0.835 | 0.803 | 0.855 | 0.772 | 0.545 | 0.812 |
| ChaGo-K-1 |  |  |  |  | 0.235 | 0.228 | 0.222 | 0.233 | 0.734 | 0.563 | 0.561 | 0.535 | 0.872 | 0.771 | 0.703 | 0.746 | 0.48 | 0.393 | 0.369 | 0.439 |
| EKVX | 0.896 | 1 | 0.717 | 0.993 | 0.44 | 0.407 | 0.449 | 0.352 | 0.542 | 0.473 | 0.457 | 0.518 | 0.856 | 0.72 | 0.678 | 0.62 | 1.06 |  | 0.517 | 0.814 |
| HCC-44 | 0.711 | 0.724 | 0.56 | 0.733 | 0.999 | 0.912 | 0.727 | 0.954 |  |  |  |  | 1.08 | 1.14 | 0.921 | 1.08 | 0.996 | 0.918 | 0.944 | 0.931 |
| NCI-H522 |  |  |  |  | 0.602 | 0.582 | 0.552 | 0.494 | 1.04 | 0.929 | 0.838 | 0.8 | 1.1 | 0.832 | 0.855 | 0.988 | 0.663 | 0.651 | 0.607 | 0.709 |
| NCI-H1650 |  |  |  |  | 0.322 | 0.362 | 0.389 | 0.377 | 0.333 | 0.391 | 0.304 | 0.316 | 0.505 | 0.539 | 0.638 | 0.644 | 0.801 | 0.712 | 0.738 | 0.838 |
| NCI-H1703 | 0.597 | 0.635 | 0.575 | 0.693 |  |  |  |  |  |  |  |  |  |  |  |  | 0.397 | 0.466 | 0.429 | 0.446 |
| NCI-H1792 | 0.409 | 0.532 | 0.449 | 0.315 |  |  |  |  | 0.547 | 0.899 | 0.716 | 0.927 |  |  |  |  | 0.647 | 0.354 | 0.404 | 0.38 |
| NCI-H2170 |  |  |  |  | 0.84 | 0.651 | 0.525 | 0.71 | 0.718 | 0.466 | 0.591 | 0.515 | 0.921 | 0.811 | 0.725 | 0.658 | 0.607 | 0.69 | 0.534 | 0.469 |
| NCI-H2342 |  |  |  |  | 0.599 | 0.526 | 0.541 | 0.483 | 0.291 | 0.3 | 0.299 | 0.332 | 0.702 | 0.692 | 0.843 | 0.668 | 0.417 | 0.473 | 0.477 | 0.468 |
